Measured values from US5641500A, “Use of purinergic receptor agonists as antineoplastic agents” (The United States of America as represented by the …, priority 1995, dated 1997).
Each block holds one molecule with its values, some of them ahead of it.

Columns and labels:
[1] = tested on: plasma membrane Ca^2+ channels; assay: Effect of organic Ca2+ channel blockers on the ATP-stimulated Ca2+ transient in PC-3; type: cell-based, human; conditions: PC-3, FIG. 9
[2] = tested on: PC-3 prostate carcinoma purinergic receptor; assay: ATP/purine-stimulated Ca2+ response (quin2 fluorescence) in PC-3; type: cell-based, human; conditions: for relative agonist potency/activity in inducing a Ca2+ transient: PC-3, FIG. 7
Protocol: (§5) The human prostate carcinoma cell lines PC3, DU145 (American Type Culture Collection) and PC-3M (a gift of Dr. G. Weiss, Surgery Branch, NCI) were maintained in Ham's F12K (PC3), Eagle's Modified Essential Medium (DU145), or RPMI 1640 (PC3M), supplemented with 7% (PC3) or 10% (DU145 and PC3M) fetal bovine serum, 100 units/ml penicillin, 100 mg/ml streptomycin, and 300 mg/ml glutamine. The cells were grown in a mixture of 5% CO2, 95% air at 37° C., and propagated by typsinization and dilution into fresh medium. Cells were typically used for calcium determination two days after dilution into fresh medium.
(§6) [Ca^2+ ]i was determined by the quin2 technique of Tsien et al. (J. Cell Biol. 94:325-334, 1982) with some modifications. Briefly, cells from confluent cultures were harvested by treatment with trypsin-EDTA. Cells were washed with calcium medium (1 mM CaCl2, 1 mM KCl, 1 mM MgCl2, 140 mM NaCl, 20 mM HEPES, 5 mM dextrose, pH 7.4), and loaded with 20 mM quin2/AM (Molecular Probes, Eugene, Oreg.) in calcium medium at 37° C. for 30 minutes, then diluted 5-fold with the same medium and incubated at 37° C. for 60 minutes. After loading, cells were washed and resuspended in the calcium media at 1.5-2.0×10^6 cells/ml and kept on ice until use. Cell viability was determined by trypan blue exclusion and was usually >95%. For measurement of fluorescence, 2 ml of cell suspension was transferred to a cuvette maintained at 37° C. Fluorescence was measured in a Perkin-Elmer 650-10S fluorescence spectrophotometer, with an excitation wavelength of 336 nm, slit 5 nm, and an emission wavelength of 493 nm, slit 5 nm. [Ca^2+ ]i was estimated after calibration with Triton X-100 and EGTA, assuming a dissociation constant of the Ca^2+ -quin2 complex of 115 nM.

[3] = tested on: purinergic receptor on PC-3M prostate carcinoma cells; assay: Purine-stimulated Ca2+ response (quin2 fluorescence) in PC-3M; type: cell-based, human; conditions: FIG. 8
Protocol: as §5, §6

[4] = tested on: DU145 prostate carcinoma purinergic receptor; assay: ATP/purine-stimulated Ca2+ response (quin2 fluorescence) in DU145; type: cell-based, human; conditions: for relative agonist potency/activity in inducing a Ca2+ transient: DU145, FIG. 6
Protocol: as §5, §6

[5] = tested on: PC-3M prostate carcinoma cells; assay: Cell growth (hemacytometer viable cell counts) and 3H-thymidine incorporation in PC-3M; type: cell-based, human; conditions: 5 days
Protocol: (§1) The human prostate carcinoma cell lines PC3, DU145 (American Type Culture Collection) and PC-3M (a gift of Dr. G. Weiss, Surgery Branch, NCI) were maintained in Ham's F12K (PC3), Eagle's Modified Essential Medium (DU145), or RPMI 1640 (PC3M), supplemented with 7% (PC3) or 10% (DU145 and PC3M) fetal bovine serum, 100 units/ml penicillin, […], and […]. The cells were grown in a mixture of 5% CO2, 95% air at 37° C., and propagated by typsinization and dilution into fresh medium. Cells were typically used for calcium determination two days after dilution into fresh medium.
(§2) Cell growth was studied by hemacytometer counts of viable cells after incubation of cells with purinergic agonists in vitro. Viability was determined by trypan blue exclusion. In addition, growth studies were performed by ^3 H-thymidine incorporation. […] The induction of DNA strand breaks in the setting of cell growth inhibition is characteristic of programmed cell death or apoptosis.
(§3) Since purinergic receptor agonists induce massive mobilization of internal Ca^2+ stores and prolong this response through the opening of plasma membrane Ca^2+ channels, the effect of purinergic receptor stimulation on the growth of androgen-independent cells was examined. The cell lines DU145, PC-3, and PC-3M were incubated in the presence of ATP or the nonhydrolysable ATP analog adenylylimidodiphosphate (AMP-PNP), and cell growth was determined by hemacytometer counts of viable cells, with viability determined by trypan blue exclusion.
(§4) To further document the purinergic agonist-induced growth inhibition, thymidine incorporation studies were performed in conjunction with hemacytometer cell counts, and the thymidine incorporation per cell of ATP and AMP-PNP treated PC-3 and PC-3M cells was determined. These studies, shown in Table 2, confirmed that purinergic agonists inhibit the growth of androgen-independent prostate carcinoma cells. […] It is of interest that normal prostate cells die in response to androgen withdrawal in a process called apoptosis, and this cell death resembles the cell death shown after treatment with purinergic agonists in two respects. Firstly, the death of normal prostate cells after androgen withdrawal is dependent on a rise in intracellular Ca^2+. Secondly, the death of normal prostate cells after androgen withdrawal is mediated by an increase in the number of DNA strand breaks. Thus, this technique should be therapeutically useful for circumventing the absence of androgen receptors on advanced prostate carcinoma cells. The results presented here represent the discovery of a surface receptor specifically expressed on advanced prostatic adenocarcinoma which, when activated, induces a mode of cell death that apparently utilizes that same intracellular pathway as the death that normal prostate cells undergo in response to the withdrawal of androgen.

[6] = tested on: PC-3 prostate carcinoma cells; assay: Nude mouse tumorigenesis of PC-3 cells pretreated in vitro; type: in vivo, athymic mice; conditions: cells pretreated in vitro 100 uM 3 times over 7 days, 1.5×10^6 cells/mouse s.c., FIG. 13
Protocol: PC-3 prostate carcinoma cells were treated in vitro with the purinergic agonists ATP or AMP-PNP, 100 uM 3 times over 7 days, and their growth in athymic mice was compared to that in untreated control cells. Cells were injected subcutaneously at an inoculum of 1.5×10^6 cells/mouse in 0.2 ml phosphate buffered saline, and the presence of palpable tumors was determined on day 22.
The cells were treated in vitro for 7 days, and then an equal number of untreated control cells, ATP treated, or AMP-PNP treated cells were inoculated subcutaneously into nude (athymic) mice.

[7] = tested on: PC-3 prostate carcinoma cells; assay: Cell growth (hemacytometer viable cell counts) and 3H-thymidine incorporation in PC-3; type: cell-based, human; conditions: for inhibition of cell growth: PC-3, 5 days, versus untreated control cells, FIG. 12; for 3H-thymidine incorporation cpm / 3H-thymidine incorporation cpm/cell / cell # (× 10-4): PC-3, 7 days
Protocol: as §1, §2, §3, §4

DU145 cells = assay: Cell growth (hemacytometer viable cell counts) in DU145; type: cell-based, human; conditions: DU145, 5 days, 100 μM, versus untreated controls, FIG. 11
Protocol: as §1
Cell growth was studied by hemacytometer counts of viable cells after incubation of cells with purinergic agonists in vitro. Viability was determined by trypan blue exclusion. In addition, growth studies were performed by ^3 H-thymidine incorporation. […]
as §3

phospholipase C = assay: ATP-stimulated inositol phosphate production (HPLC of 3H-inositol phosphates) in PC-3; type: cell-based, human
Protocol: Cells were incubated with ^3 H-inositol (6 μCi/ml) in inositol-free RPMI 1640 medium (NIH Media Unit) without serum for 2 to 3 days at 37° C. under an atmosphere of 5% CO2, 95% air. Cells were detached by trypsinization, washed twice in phosphate buffered saline pH 7.4, resuspended in PBS with 10 mM LiCl, and maintained for 15 minutes at 37° C. After that, cells were washed twice with PBS plus 10 mM LiCl and resuspended in calcium medium plus 10 mM LiCl. The cell suspension was aliquoted into Eppendorf tubes, pre-warmed at 37° C., and treated with reagents for different times as indicated. Reactions were terminated by adding 100% trichloroacetic acid (TCA) to a final concentration of 10%. After centrifugation, the supernatants were removed, extracted twice with water-saturated ether to remove TCA, and stored at 4° C. until quantitative analysis of inositol phosphates by high pressure liquid chromatography.
Samples prepared as described above were applied to a Whatman Partisil 5 SAX column. Inositol phosphates were separated using an ammonium phosphate gradient (0.01M to 1.4M. pH 3.8, 1 ml/min flow rate) as described previously (Biochem. J. 255: 403-410, 1988). Radioactivity was measured by use of a Raytest radiodetector with a 2 ml flow cell and a ratio of 4:1 (v:v) of Monoflow 4 high salt scintillant (National Diagnostics); eluate at an efficiency of 17%. Values (counts/min) for each inositol phosphate were expressed as a percentage of ^3 H-phosphoinositides in the sample, permitting comparison among experiments.

SMILES: COc1ccc(CCN(C)CCCC(C#N)(c2ccc(OC)c(OC)c2)C(C)C)cc1OC (stereo not shown) [verapamil]
- inhibition of influx of extracellular Ca2+ caused by ATP stimulation [1]: inhibitable

SMILES: COC(=O)C1=C(C)NC(C)=C(C(=O)OCCN(C)Cc2ccccc2)C1c1cccc([N+](=O)[O-])c1 (stereo not shown) [nicardipine]
- inhibition of influx of extracellular Ca2+ caused by ATP stimulation [1]: inhibitable

SMILES: Nc1ncnc2c1ncn2[C@@H]1O[C@H](CO)[C@@H](O)[C@H]1O [adenosine]
- relative agonist potency/activity in inducing a Ca2+ transient [2]: ATP>ADP>AMP>adenosine
- relative agonist potency/activity in inducing a Ca2+ transient [3]: ATP>ADP>AMP>adenosine
- relative agonist potency/activity in inducing a Ca2+ transient [4]: ATP>ADP>AMP>adenosine

SMILES: COC(=O)C1=C(C)NC(C)=C(C(=O)OC)C1c1ccccc1[N+](=O)[O-] [nifedipine]
- inhibition of influx of extracellular Ca2+ caused by ATP stimulation [1]: inhibitable

- relative agonist potency/activity in inducing a Ca2+ transient [2]: ATP>ADP>AMP>adenosine
- relative agonist potency/activity in inducing a Ca2+ transient [4]: ATP>ADP>AMP>adenosine
SMILES: Nc1ncnc2c1ncn2[C@@H]1O[C@H](COP(=O)(O)OP(=O)(O)O)[C@@H](O)[C@H]1O [ADP, adenosine diphosphate]
- relative agonist potency/activity in inducing a Ca2+ transient [3]: ATP>ADP>AMP>adenosine

SMILES: C[C@H](CCC(=O)O)C[C@H](C)C[C@H](C)C(=O)/C=C(\O)[C@H](C)C[C@H](C)C/C=C/[C@@H](C)[C@@H](O)[C@@H](C)[C@@H](O)C[C@@H]1CC[C@@](C)([C@H]2CC[C@@](C)([C@@H](C)O)O2)O1 [Ionomycin, ionomycin, reference compound]
- 3H-thymidine incorporation cpm ([5]; 1 μM): 3920 cpm
- 3H-thymidine incorporation cpm/cell ([5]; 1 μM): 0.39 cpm/cell
- cell # (× 10-4) ([5]; 1 μM): 1.0 × 10-4

SMILES: Nc1ncnc2c1ncn2[C@@H]1O[C@H](COP(=O)(O)OP(=O)(O)NP(=O)(O)O)[C@@H](O)[C@H]1O [AMP-PNP, 5'adenylylimidodiphosphate]
- inhibition of tumorigenesis (palpable tumor) [6]: inhibition of PC-3 prostate carcinoma tumorigenesis
- 3H-thymidine incorporation cpm ([5]; 100 μM): 2790 cpm
- 3H-thymidine incorporation cpm/cell ([5]; 100 μM): 0.14 cpm/cell
- cell # (× 10-4) ([5]; 100 μM): 2.0 × 10-4
- inhibition of cell growth ([7]; 100 μM): inhibition of growth
- 3H-thymidine incorporation cpm ([7]; 100 μM): 307 cpm
- 3H-thymidine incorporation cpm/cell ([7]; 100 μM): 0.06 cpm/cell
- cell # (× 10-4) ([7]; 100 μM): 0.5 × 10-4
- inhibition of cell growth (DU145 cells): inhibition of growth

SMILES: CCCC(=O)Nc1ncnc2c1ncn2[C@@H]1O[C@@H]2COP(=O)(O)O[C@H]2[C@H]1OC(=O)CCC [DbcAMP, reference compound]
- 3H-thymidine incorporation cpm ([7]; DbcAMP concentration not given): 182 cpm
- 3H-thymidine incorporation cpm/cell ([7]; DbcAMP concentration not given): 0.01 cpm/cell
- cell # (× 10-4) ([7]; DbcAMP concentration not given): 1.5 × 10-4

SMILES: Nc1ncnc2c1ncn2[C@@H]1O[C@H](COP(=O)(O)OP(=O)(O)OP(=O)(O)O)[C@@H](O)[C@H]1O [ATP, adenosine triphosphate]
- inhibition of tumorigenesis (palpable tumor) [6]: inhibition of PC-3 prostate carcinoma tumorigenesis
- mean percent stimulation of Ca2+ response ([2]; PC-3, 100 μM ATP, 16 experiments): 443.3%
- Ca2+ mobilizing activity compared with other peptides and neurotransmitters ([2]; PC-3, FIG. 1): largest Ca^2+ response of the agonists tested
- relative agonist potency/activity in inducing a Ca2+ transient [2]: ATP>ADP>AMP>adenosine
- relative agonist potency/activity in inducing a Ca2+ transient [3]: ATP>ADP>AMP>adenosine
- 3H-thymidine incorporation cpm ([5]; 100 μM): 3307 cpm
- 3H-thymidine incorporation cpm/cell ([5]; 100 μM): 0.11 cpm/cell
- cell # (× 10-4) ([5]; 100 μM): 3.0 × 10-4
- inhibition of cell growth ([7]; 100 μM): inhibition of growth
- 3H-thymidine incorporation cpm ([7]; 100 μM): 2729 cpm
- 3H-thymidine incorporation cpm/cell ([7]; 100 μM): 0.04 cpm/cell
- cell # (× 10-4) ([7]; 100 μM): 7.5 × 10-4
- I(1,4,5)P3 % of total IP (phospholipase C; PC-3, 8 sec): 0.64 % of total IP
- I(1,4,5)P3 cpm (phospholipase C; PC-3, 8 sec): 1103 cpm
- I(1,4,5)P3 % of total IP (phospholipase C; PC-3, 15 sec): 0.57 % of total IP
- I(1,4,5)P3 cpm (phospholipase C; PC-3, 15 sec): 971 cpm
- I(1,4,5)P3 % of total IP (phospholipase C; PC-3, 30 sec): 0.78 % of total IP
- I(1,4,5)P3 cpm (phospholipase C; PC-3, 30 sec): 1361 cpm
- inhibition of cell growth (DU145 cells): inhibition of growth
- mean percent stimulation of Ca2+ response ([4]; DU145, 100 μM ATP, 13 experiments): 510.7%
- relative agonist potency/activity in inducing a Ca2+ transient [4]: ATP>ADP>AMP>adenosine

SMILES: COc1ccc([C@@H]2Sc3ccccc3N(CCN(C)C)C(=O)[C@@H]2OC(C)=O)cc1 [diltiazem]
- inhibition of influx of extracellular Ca2+ caused by ATP stimulation [1]: inhibitable

- relative agonist potency/activity in inducing a Ca2+ transient [2]: ATP>ADP>AMP>adenosine
- relative agonist potency/activity in inducing a Ca2+ transient [4]: ATP>ADP>AMP>adenosine
SMILES: Nc1ncnc2c1ncn2[C@@H]1O[C@H](COP(=O)(O)O)[C@@H](O)[C@H]1O [AMP, adenosine monophosphate]
- relative agonist potency/activity in inducing a Ca2+ transient [3]: ATP>ADP>AMP>adenosine
